According to patent publication US20050155087A1, “Method of screening compounds” (priority 2001, published 2005):

Experiments:
[1] = test system: wild-type zebrafish embryos; details: in vivo
[2] = test system: cds mutant zebrafish embryos; experiment: rescue of polyploid zebrafish mutant cds; details: in vivo
Text: FIGS. 6A-6E show the ability of 8G16 to rescue a crash&burn (crb) zebrafish mutant (FIGS. 6B, untreated crb mutant and 6D 8G16 treated crb mutant) but not another polyploid zebrafish mutant cds (FIGS. 6C, untreated cds mutant and 6E, 8G16 treated cds mutant) compared to a wild-type, untreated embryo (FIG. 6A).

zebrafish embryos [3] = experiment: FACS analysis of the cell cycle of cells from treated embryos; assay type: in vivo; details: embryos treated with 10 and 100 μM 8G16
Text: Flow cylometric cell sorting analysis of zebrafish embryos to identify defects in cell cycle: To analyze the DNA content of the embryos wild-type and mutant embryonic cells were subjected to DNA flow cytometric cell sorting (FACS). We have shown that the FACS analysis of DNA content can be performed on cells from a single embryo allowing analysis and comparison of mutant and wild-type cell cycle phenotypes.
Embryos were anesthetized with tricaine (3-amino benzoic acid ethylester also called ethyl m-aminobenzoate, in a powdered form from Sigma, Cat.# A-5040). Tricaine solution for anesthetizing fish was prepared by combining the following: 400 mg tricaine powder, 97.9 ml DD water, and about 2.1 ml 1 M Tris (pH 9), pH was adjusted to about 7. Before use 4.2 ml of Tricaine solution was mixed with 100 ml clean tank water.
The embryos were dechorionated as described above and resuspended in a small volume of DMEM −20% FBS in a microtube. Embryos were disaggregated and resuspend in 1-2 ml of DMEM+20% FBS. The solution was passed through 105 μm mesh, and consequently 40 μm mesh. The total volume was raised to 5 ml and the cells' in the sample was counted using hemocytometer. Volume equaling 2×10^6 cells was transferred in 15 ml conical tube and filled to a total volume of 5 ml with PBS. The sample was spinned at 1200 rpm for 10 minutes and the liquid was aspirated off. […]

[4] = test system: crash & burn (SQW 226) mutant zebrafish embryos; experiment: chemical suppressor screen: whole mount P-H3 immunostaining of crash & burn embryos; assay type: in vivo, zebrafish (Danio rerio)
zebrafish embryos [5] = details: cited from earlier work; for apoptosis in zebrafish embryos: in vivo
[6] = test system: zebrafish (wild-type and SQW mutant strains); details: in vivo
[7] = 9-20 μM, 24 hours of development

Structure (SMILES) | P-H3 staining in wildtype embryos [1] | P-H3 staining in crash and burn embryos ([4]; zebrafish, in vivo) | further results
O=C(Nc1ncccc1O)C12CC3CC(CC(C3)C1)C2 [8G16, Adamantane-1-carboxylic acid (3-hydroxy-pyridin-2-yl)-amide] |  |  | effect on normal embryos [1]: without affecting; toxicity or cell cycle affects on wild-type embryos [1]: without overt toxicity or cell cycle affects; rescue of polyploid zebrafish mutant cds [2]: not; cell cycle phase distribution (zebrafish embryos [3]): accumulation of cell in the G1/S phase; phenotypic appearance of crash & burn ([4]; 10 μM 8G16, P-H3 antibody staining, genotype still crb): prevents; P-H3 staining of treated embryos [4, 7]: normal; developmental delay of treated embryos [4, 7]: slight developmental delay; crash & burn mutants detected at 24 hours of development ([4]; doses of 9, 12, 16 and 20 μM, 30-60 embryos at each dose): no crash & burn mutants were detected; crash and burn cell cycle phenotype ([4]; through 24 hours of development): prevents; rescue of crash&burn (crb) zebrafish mutant ([4]; zebrafish, in vivo): rescue
CNc1ccc2oc(C[C@H]3O[C@@]4(CC[C@H]3C)O[C@H]([C@H](C)C(=O)c3ccc[nH]3)[C@H](C)C[C@H]4C)nc2c1C(=O)O [A23187] |  |  | fate of metaphase arrested cells (zebrafish embryos [5]; metaphase arrested cells): driven into G1
C=CCOc1c(Br)cc(S(=O)(=O)c2cc(Br)c(O)c(Br)c2)cc1Br [Compound 2, 4-(4-Allyloxy-3,5-dibromo-benzenesulfonyl)-2,6-dibromo-phenol] | decrease | decrease | 
Cc1cc(O)c(C(=O)C=Cc2ccc(O)cc2)c(=O)o1 [Compound 3, 4-Hydroxy-3-[3-(4-hydroxy-phenyl)-acryloyl]-6-methyl-pyran-2-one] | decrease | decrease | 
O=C(c1ccccc1)C1C(=O)C2C=CC=CC2C1=O (stereo not shown) [Compound 4, 2-Benzoyl-3a,7a-dihydro-indene-1,3-dione] | decrease | decrease | 
Cc1ccc(S(=O)(=O)Oc2ccc([N+](=O)[O-])cc2[N+](=O)[O-])cc1 [Compound 5, Toluene-4-sulfonic acid 2,4-dinitro-phenyl ester] | decrease | decrease | 
O=C(Nc1cc(S(=O)(=O)c2ccc(Cl)cc2)ccc1Cl)c1cc(I)cc(I)c1O [Compound 6, 3,5-Diiodo-N-[2-chloro-5-(4-chloro-benzenesulfonyl)-phenyl]-2-hydroxy-benzamide] | decrease | decrease | 
Nc1cc([N+](=O)[O-])ccc1NNC(=O)Nc1ccccc1 [Compound 7, 1-(2-Amino-4-nitro-phenylamino)-3-phenyl-urea] | decrease | decrease | 
N=c1ccccn1CC(=O)c1ccc(Cl)c(Cl)c1 [Compound 8, 1-(3,4-Dichloro-phenyl)-2-(2-imino-2H-pyridin-1-yl)-ethanone] | decrease | decrease | 
Cc1ccccc1OCC(=O)Nc1ccccc1C(=O)O [Compound 9, 2-(2-o-Tolyloxy-acetylamino)-benzoic acid] | decrease | decrease | 
COC(=O)CCC(=O)Nc1ccccc1Cl [Compound 10, N-(2-Chloro-phenyl)-succinamic acid methyl ester] | increase |  | 
O=C(O)CCCC(=O)Nc1cc(C(F)(F)F)ccc1Cl [Compound 11, 4-(2-Chloro-5-trifluoromethyl-phenylcarbamoyl)-butyric acid] | increase |  | 
O=C(O)c1cc([N+](=O)[O-])c(Nc2cccc3ccccc23)c([N+](=O)[O-])c1 [Compound 12, 4-(Naphthalen-1-ylamino)-3,5-dinitro-benzoic acid] | increase |  | 
O=C(CSC1CC(=O)N(c2cccc(Cl)c2)C1=O)Nc1cccc(F)c1 (stereo not shown) [Compound 13, 2-[1-(3-Chloro-phenyl)-2,5-dioxo-pyrrolidin-3-ylsulfanyl]-N-(3-fluoro-phenyl)-acetamide] | increase |  | 
CC1=CCC2(CO)COC(c3ccccc3O)C1C2 (stereo not shown) [Compound 14, 2-(5-Hydroxymethyl-8-methyl-3-oxa-bicyclo[3.3.1]non-7-en-2-yl)-phenol] | increase |  | 
CC(=O)C1=C(C)NC(=O)NC1c1cccc(O)c1 (stereo not shown) [Compound 15, 5-Acetyl-4-(3-hydroxy-phenyl)-6-methyl-3,4-dihydro-1H-pyrimidin-2-one] | increase |  | 
Cc1c2ccccc2c(C)c2c1ccc1ccccc12 [DMBA, 7, 12 Dimethyl benzanlhracene] |  |  | fish that developed tumors [6]: 10.4%; tumor types [6]: more brain and liver tumors
C[C@@]1(CO)[C@H](O)CC[C@@]2(C)[C@H]1CC[C@H]1C[C@@H]3C[C@@]12CC[C@]3(O)CO [aphidicolin, reference compound] |  |  | apoptosis in zebrafish embryos (zebrafish embryos [5]): cause apoplosis; P-H3 staining in all embryos, including crash & burn ([4]; offspring of crash & burn heterozygotes raised in the presence of the chemical): decreased
CC[C@@]1(O)C(=O)OCc2c1cc1n(c2=O)Cc2cc3ccccc3nc2-1 [camptothecin] |  |  | apoptosis in zebrafish embryos (zebrafish embryos [5]): cause apoplosis
NC(=O)NO [hydroxyurea] |  |  | apoptosis in zebrafish embryos (zebrafish embryos [5]): cause apoplosis
COC(=O)Nc1nc2ccc(C(=O)c3cccs3)cc2[nH]1 [nocodazole] |  |  | effect of treating post-MBT embryos (zebrafish embryos [5]; post-MBT embryos): metaphase arrest and apoptosis
